From ChEMBL document CHEMBL1201862, “PubChem BioAssay data set” (2004)
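Briefly, cells in 96-well plates were exposed to five compound concentrations for 48 h, and endpoints were estimated by linear interpolation. The concentration for 50% growth inhibition is given as GI50.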 Calls of active or inactive are those of the source. Cut-off read from the data, not from the text of the source: active = GI50 up to about 1.1 µM and inactive = higher.

Legend:
Test in all cases: DTP human tumour cell line panel, 48 h
SK-OV-3 = tested on: SK-OV-3
COLO 205 = tested on: COLO 205
SW-620 = tested on: SW-620
A498 = tested on: A498
CAKI-1 = tested on: CAKI-1
NCI-H522 = tested on: NCI-H522
SK-MEL-5 = tested on: SK-MEL-5
CCRF-CEM = tested on: CCRF-CEM
SK-MEL-2 = tested on: SK-MEL-2
OVCAR-8 = tested on: OVCAR-8
T47D = tested on: T47D
HCT-116 = tested on: HCT-116
HCC 2998 = tested on: HCC 2998
RPMI-8226 = tested on: RPMI-8226
MCF7 = tested on: MCF7
DU-145 = tested on: DU-145
A549 = tested on: A549
OVCAR-4 = tested on: OVCAR-4
HOP-92 = tested on: HOP-92
MDA-MB-435 = tested on: MDA-MB-435

Measured: GI50

O=C(/C=C/c1ccc(O)c(O)c1)NCCc1ccc(-c2ccccc2)cc1
inactive: SK-OV-3 > 100 µM | COLO 205 78.3 µM | SW-620 > 100 µM | A498 > 100 µM | CAKI-1 40.8 µM | NCI-H522 > 100 µM | SK-MEL-5 45.8 µM | CCRF-CEM 26.5 µM | SK-MEL-2 > 100 µM | OVCAR-8 > 100 µM | T47D > 100 µM | HCT-116 27.3 µM | HCC 2998 54.3 µM | RPMI-8226 39.4 µM | MCF7 32.3 µM | DU-145 > 100 µM | A549 > 100 µM | OVCAR-4 > 100 µM

COc1cc(NC(C)=O)c2[nH]c3c(C)cc(NC(C)=O)c(C)c3c2c1
inactive: SK-OV-3 > 100 µM | COLO 205 > 100 µM | SW-620 > 100 µM | A498 > 100 µM | CAKI-1 > 100 µM | HOP-92 > 100 µM | NCI-H522 > 100 µM | SK-MEL-5 > 100 µM | CCRF-CEM > 100 µM | SK-MEL-2 > 100 µM | OVCAR-8 > 100 µM | HCT-116 > 100 µM | HCC 2998 > 100 µM | RPMI-8226 > 100 µM | A549 > 100 µM | OVCAR-4 > 100 µM

O=C1NC(=O)C(CC(C(=O)C(=O)Nc2ccccc2Cl)C(=O)c2ccc3ccccc3c2)C(=O)N1 (configuration not stated)
inactive: SK-OV-3 > 100 µM | COLO 205 > 100 µM | SW-620 > 100 µM | CAKI-1 > 100 µM | HOP-92 61.9 µM | NCI-H522 > 100 µM | SK-MEL-5 > 100 µM | CCRF-CEM > 100 µM | SK-MEL-2 > 100 µM | OVCAR-8 > 100 µM | MDA-MB-435 > 100 µM | HCT-116 > 100 µM | HCC 2998 > 100 µM | MCF7 > 100 µM | DU-145 > 100 µM | A549 > 100 µM | OVCAR-4 > 100 µM

COc1cc(/C=c2\sc3n(c2=O)C(c2ccc(Cl)cc2)C2=C(CCCC2C)N=3)cc(OC)c1OC (configuration not stated)
inactive: SK-OV-3 > 100 µM | SW-620 > 100 µM | A498 > 100 µM | CAKI-1 > 100 µM | HOP-92 > 100 µM | SK-MEL-5 83 µM | CCRF-CEM > 100 µM | SK-MEL-2 > 100 µM | OVCAR-8 > 100 µM | MDA-MB-435 > 100 µM | HCT-116 > 100 µM | RPMI-8226 > 100 µM | MCF7 > 100 µM | DU-145 > 100 µM | A549 > 100 µM

O=CC1OC(=O)c2cc(O)c(O)c(O)c2-c2c(cc(O)c(O)c2O)C(=O)OC1C(O)C(O)CO (configuration not stated)
inactive: COLO 205 45.5 µM | SW-620 17.1 µM | A498 > 100 µM | CAKI-1 19.1 µM | HOP-92 > 100 µM | NCI-H522 31 µM | SK-MEL-5 51.6 µM | CCRF-CEM 38.8 µM | SK-MEL-2 15.4 µM | OVCAR-8 19.8 µM | MDA-MB-435 18.3 µM | HCT-116 28.1 µM | HCC 2998 > 100 µM | RPMI-8226 26.2 µM | MCF7 19.1 µM | DU-145 > 100 µM | A549 49.8 µM | OVCAR-4 17.4 µM

CN1CC[C@@]2(c3cccc(O)c3)CC(=O)/C(=C/c3ccccc3)[C@H]1C2.[O-][Cl+3]([O-])([O-])O
inactive: COLO 205 8.05 µM | SW-620 2.54 µM | A498 9.31 µM | CAKI-1 1.64 µM | HOP-92 14.9 µM | NCI-H522 3.93 µM | SK-MEL-5 17.8 µM | CCRF-CEM 3.12 µM | SK-MEL-2 19.8 µM | OVCAR-8 8.22 µM | MDA-MB-435 3.05 µM | HCT-116 3.37 µM | HCC 2998 10.4 µM | RPMI-8226 2.44 µM | MCF7 2.64 µM | DU-145 15.8 µM | A549 15 µM | OVCAR-4 7.94 µM
